Consider five molecules from US10624913B2, “Diagnostics and methods for treatment of non-alcoholic hepatic steatosis and hepatic steatohepatitis, and prevention of complications thereof” (VOLANT HOLDINGS GMBH, priority 2011, dated 2020).

Each structure is given as a SMILES string. Structures can show the parent of a compound that is named as a salt.

Data set [1] concerns patients with multiple manifestations of MetS. Briefly: Treatment comparison of RYGB, Brake or atorvastatin (Lipitor), each added to standard of care (Example 3). Conditions: for LDL percent change: from baseline. Type of data set: in vivo, human. From the text: FIG. 20. […] All patients were given 10 gm Brake™ once Daily, orally, 4 hrs prior to their main meal Pertinent demographic and clinical data were retrieved from medical records for all patients, and shown in FIG. 21. Variables included age, gender, body weight, lipid panel (low-density lipoprotein [LDL], high-density lipoprotein [HDL], triglycerides [TG], and total cholesterol [TC]), HbA1c, and liver function tests (aspartate aminotransferase [AST] and alanine aminotransferase [ALT]). Patients were followed monthly for up to one year to assess changes in the above stated variables. […] From the beginning, the patients who began the study with abnormal findings were separated from the patients with initially normal values and those with abnormal findings were further analyzed to define the magnitude of change as well as the percent change from baseline pre-therapy. Descriptive statistics were used in analyzing the baseline characteristics of each cohort. In addition to counts of how many patients had values above threshold, all descriptive characteristics are reported for each group as percentages and mean values, or where appropriate, the binary distribution percentages. […] This testing was applied to case and control cohorts: (a) using data for all treated patients, (b) using data for only those with abnormal range baselines (c) using cases where the initial value was within the normal range for the laboratory. Data were subsequently analyzed for percent change by biomarker from both of these two perspectives. Comparisons between groups were performed by mixed analysis of variances with a post hoc correction for multiple comparisons to analyze differences between treatments. Data are presented as mean±standard deviation (unless otherwise specified). A p<0.05 was considered evidence of significant change. All statistical analyses were conducted using SAS version 9.4 (SAS institute, Cary, N.C.).

Data set [2] concerns metabolic syndrome / cardiovascular risk (FS index, CV index). Description: Cross comparison of FS index and CV index in treated patients (Example 2). Type of data set: in vivo, human. Conditions: before, at 6 and 12 months, added to SoC; words.
Method: Here we compare the same patients using FS index and CV index, in order to establish concordance in the risk scoring. We also include patients with MIs as examples of patients with CV events. For each of these patients, the FS index was calculated and the CV index was calculated, using an electronic spreadsheet designed for this purpose, and with the goal to evaluate concordance in the risk scoring. We also include patients with MIs as examples of patients with CV events.
To assess changes in metabolic syndrome, patient characteristics were analyzed using the FS Index.(44) Briefly, the FS index is a method for assessing cardiovascular risk associated with the glucose supply side in metabolic syndrome and T2D patients. The FS index is obtained from the individual patient's biological parameters, wherein a FS index value of greater than 60 is indicative that the individual is in need of therapy for metabolic syndrome or at risk for at least one cardiovascular complication associated with metabolic syndrome.
The test system of data set [3] is ileal brake (PYY, motilin). Conditions: ileal infusions in different amounts; words; cited from earlier work.
In data set [4] the test system is patients with incident AF. Briefly: Longitudinal cohort study of atrial fibrillation patients with or without warfarin. Type of data set: in vivo, human. The following applies: adjusted for age and CHADS2; 95% CI 0.85, 2.13; not statistically significant. Here is the method:
We performed a longitudinal, cohort study with pharmacy and medical claims from 1997 to 2008 from a local health maintenance organization. Participants were identified with incident AF irrespective of warfarin status and followed through their duration within the database. Three clinical outcome measures were assessed including stroke, myocardial infarction, and bleeding. A neural net model was developed to identify patients at high risk of clinical event and defined to be an ‘enriched’ patient. The model defines the enrichment based on the top 10 minimum mean square error (MMSE) output parameters that describe the three clinical outcomes. The MMSE ranks the parameters in order from best to worst predictability when modeling the outputs. Predictors and outcome measures were ascertained with cox proportional hazards models.

The next data set has as its system Hepatitis C virus. Description: Hepatitis C patient cases: viral load. Type of data set: in vivo, human. The following applies: Patient E1 on combination; words. As for the experimental part:
Case 1: A Hepatitis C Patient with Moderate Viral Load Treated with Brake™ Alone, with the Goal to Evaluate the Secondary Antiviral Impact of Improving the Hepatic Steatosis
Patient M1 was a person with a normal BMI.
They were not on Hepatitis C treatment since 2007; no antiviral drugs in the 3 years prior to Brake™ therapy. Treatment Course: Aphoeline Brake™ (formulation II) was added to their treatment at their second visit.
A Hepatitis C Patient with Combination Treatment of Brake™ and pegIFN/Riba, a Test of the Ability of Combinations to Reduce Viral Load Over that of pegIFN/Riba Alone
After two months with only moderate viral load response to this increased dosage, the patient had the addition of 10 gm per day of Aphoeline Brake™ added to their maximal dose pegIFN/Riba regimen.
Case 3: A Hepatitis C Patient with Advanced Cirrhosis, Treated with Brake™ Alone, a Test of the Ability to Control Hepatic Steatosis in the Face of Minimal Action on the Viral Load
Patient L1 is a Overweight (5′3″ 202 lb) but not overtly T2D […] with Hepatitis C genotype 1a since ˜2002. They had previously been treated with pegIFN/Riba but had been considered a failure in 2005. They have been untreated for Hepatitis C since that time. […] Their bilirubin was 1.5 when seen and they were on the liver transplant list. Their chronic medications included spironolactone, rifaximin, and nexium. […]

Setting [5] is: decline from pre-treatment baseline, added to SoC, FIG. 21.

Consider `CC(C)c1c(C(=O)Nc2ccccc2)c(-c2ccccc2)c(-c2ccc(F)cc2)n1CC[C@@H](O)C[C@@H](O)CC(=O)O` (relative stereo) [atorvastatin, [R—(R*,R*)]-2-(4-fluorophenyl)-β,δ-dihydroxy-5-(l-methylethyl)-3-phenyl-4-[(phenylamino)-carbonyl]-1H-pyrrole-1-heptanoic acid; calcium salt (2:1) trihydrate], for which, in data set [1] (abnormal baseline cases, 6 and 12 months of treatment), the Total cholesterol decline is given as 3.2%. The molecule further displayed a Body weight decline in data set [1] (at 12 months) of 2.6%. Also, in data set [1] (setting [5]), the ALT decline entry is given as “essentially no decline”, the AST decline was found to be 3.5% and the Triglyceride concentration decline stood at 18%. Also, the HDL values entry in data set [1] (high dose (40 mg) atorvastatin alone, words) is reported as “decreased”. The LDL percent change in data set [1] (high dose (40 mg) atorvastatin, FIG. 21) was −22.7%. The LDL percent change in data set [1] (low dose atorvastatin, FIG. 21) is −10.1%. Moreover, the HDL values result in data set [1] (low dose atorvastatin, words) is recorded as “increased”. In addition, the “Changes baseline to post treatment in triglycerides” value in data set [1] (words) is given as “negligible”. Moreover, the “Changes in ALT and AST over pre treatment baseline” value in data set [1] (words, atorvastatin 10 mg or 40 mg) was “Only minor changes”.
As for `CN(C)C(=N)N=C(N)N` [metformin], in data set [2], the “Changes in FS index over pre-treatment baseline” value is on record as “did not change the FS index”.
Regarding `CCCCCCCC/C=C\CCCCCCCC(=O)O` [oleic acid], in data set [3], the PYY levels entry is listed as “dose-dependent increase” and the motilin levels entry is on record as “borderline decrease”.
As for `CC(=O)CC(c1ccccc1)c1c(O)c2ccccc2oc1=O` (stereo not shown) [warfarin], the “risk of negative clinical outcomes (aHR)” value in data set [4] came to 1.35.
In the case of `COc1cc(/C=C/C(=O)CC(=O)/C=C/c2ccc(O)c(OC)c2)ccc1O` [curcumin], in the data set with Hepatitis C virus, the “Hepatitis C virus status / control of viral load” value was “loss of control for viral load”.
